Source: ChEMBL document CHEMBL1139145, “Inhibition of cancer cell adhesion by heterochiral Pro-containing RGD mimetics” (Bioorg Med Chem Lett, 2007)
Residues, ends and D or L forms follow the SMILES beside them.

target: Integrin alpha-V/beta-3 (Homo sapiens, UniProt P05106+P06756); assay: Inhibition of integrin alpha-v-beta-3 receptor-mediated human SK-MEL-24 cell adhesion to fibronectin by fluorimetry; assay type: protein-complex assay
Sequence (P05106 27-788 limits assumed): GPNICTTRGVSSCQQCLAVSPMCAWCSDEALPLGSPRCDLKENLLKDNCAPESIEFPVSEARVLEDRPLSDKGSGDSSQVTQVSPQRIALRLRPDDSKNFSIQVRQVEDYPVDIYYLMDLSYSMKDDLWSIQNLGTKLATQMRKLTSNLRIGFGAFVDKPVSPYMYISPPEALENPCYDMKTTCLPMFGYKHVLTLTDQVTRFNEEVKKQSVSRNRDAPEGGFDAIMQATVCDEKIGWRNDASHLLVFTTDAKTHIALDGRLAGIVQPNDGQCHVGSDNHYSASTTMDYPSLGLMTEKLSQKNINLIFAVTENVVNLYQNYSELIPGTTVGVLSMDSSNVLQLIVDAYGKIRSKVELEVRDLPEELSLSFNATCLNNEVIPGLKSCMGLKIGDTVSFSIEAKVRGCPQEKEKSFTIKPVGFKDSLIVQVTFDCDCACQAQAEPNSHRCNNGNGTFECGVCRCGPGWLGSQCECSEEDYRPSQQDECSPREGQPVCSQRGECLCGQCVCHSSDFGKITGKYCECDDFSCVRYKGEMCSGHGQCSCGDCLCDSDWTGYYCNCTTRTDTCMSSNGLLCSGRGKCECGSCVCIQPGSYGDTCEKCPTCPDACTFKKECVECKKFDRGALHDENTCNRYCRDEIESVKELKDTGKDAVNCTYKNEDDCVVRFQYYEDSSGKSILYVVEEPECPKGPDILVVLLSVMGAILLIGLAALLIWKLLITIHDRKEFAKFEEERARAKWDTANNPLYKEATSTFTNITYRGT
Sequence (P06756 31-889 limits assumed): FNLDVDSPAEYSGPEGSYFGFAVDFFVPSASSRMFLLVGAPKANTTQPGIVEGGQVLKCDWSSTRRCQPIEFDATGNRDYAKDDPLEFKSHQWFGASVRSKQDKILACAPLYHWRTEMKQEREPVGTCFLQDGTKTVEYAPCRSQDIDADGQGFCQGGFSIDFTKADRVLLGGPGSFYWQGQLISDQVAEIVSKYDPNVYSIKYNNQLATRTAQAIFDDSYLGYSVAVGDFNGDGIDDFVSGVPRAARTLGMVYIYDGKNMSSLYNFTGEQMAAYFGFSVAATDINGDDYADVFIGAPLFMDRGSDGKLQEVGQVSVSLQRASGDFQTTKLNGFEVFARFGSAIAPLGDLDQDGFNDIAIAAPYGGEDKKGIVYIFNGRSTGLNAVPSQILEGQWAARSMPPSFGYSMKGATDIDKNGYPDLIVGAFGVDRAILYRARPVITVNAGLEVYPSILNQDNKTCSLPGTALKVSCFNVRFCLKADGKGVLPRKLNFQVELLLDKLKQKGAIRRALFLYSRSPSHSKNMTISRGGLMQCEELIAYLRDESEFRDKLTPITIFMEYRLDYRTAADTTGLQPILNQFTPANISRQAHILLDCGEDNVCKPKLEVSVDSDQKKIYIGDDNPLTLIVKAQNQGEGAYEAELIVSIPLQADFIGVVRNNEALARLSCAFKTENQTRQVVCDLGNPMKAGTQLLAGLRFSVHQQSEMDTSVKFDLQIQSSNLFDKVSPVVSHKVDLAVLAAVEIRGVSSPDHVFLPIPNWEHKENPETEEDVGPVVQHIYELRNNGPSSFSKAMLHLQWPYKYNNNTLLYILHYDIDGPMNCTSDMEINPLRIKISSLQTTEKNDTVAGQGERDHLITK
Sequence (P06756 891-1048 limits assumed): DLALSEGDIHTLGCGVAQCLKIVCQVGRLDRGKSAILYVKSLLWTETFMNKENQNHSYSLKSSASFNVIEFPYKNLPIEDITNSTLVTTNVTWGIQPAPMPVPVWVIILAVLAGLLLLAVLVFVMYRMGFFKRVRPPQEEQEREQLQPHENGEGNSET

Point of comparison: `CC(=O)N[C@@H](CC(=O)O)C(=O)N[C@@H](CCCN=C(N)N)C(=O)NCC(=O)N[C@@H](CC(=O)O)C(=O)N[C@@H](CO)C(=O)O` (Ac-DRGDS-OH), IC50 20 nM. Against it:
- NC(N)=NCCCC(=O)N1CCC[C@@H]1C(=O)NCCC(=O)O — 60-fold higher, 1200 nM
- N=C(N)NCCC(=O)N1CCC[C@@H]1C(=O)N[C@@H](CCC(=O)O)C(=O)NCc1ccccc1 — 1.8-fold higher, 35 nM
- Cc1ccc(S(=O)(=O)N[C@@H](CCCNC(=N)N)C(=O)N2CCC[C@H]2C(=O)N[C@@H](CC(=O)O)C(=O)NCc2ccccc2)cc1 — 5000-fold higher, 100000 nM
- N=C(N)NCCCC(=O)N1CCC[C@@H]1C(=O)N[C@@H](CC(=O)O)C(=O)NCc1ccccc1 — within 1.5-fold, 26 nM
- N=C(N)NCCCC(=O)N1CCC[C@@H]1C(=O)N[C@@H](CCC(=O)O)C(=O)NCc1ccccc1 — 130-fold higher, 2600 nM
- Cc1ccc(S(=O)(=O)N[C@@H](CCCN=C(N)N)C(=O)N2CCC[C@@H]2C(=O)N[C@@H](CC(=O)O)C(=O)NCc2ccccc2)cc1 — 7.5-fold higher, 150 nM
- N=C(N)NCCC(=O)N1CCC[C@@H]1C(=O)N[C@@H](CC(=O)O)C(=O)NCc1ccccc1 — higher, > 100000 nM
- CCCNC(=O)[C@H](CC(=O)O)NC(=O)[C@H]1CCCN1C(=O)CCCN=C(N)N — 1000-fold higher, 20000 nM
- NC(N)=NCCCCC(=O)N1CCC[C@@H]1C(=O)N[C@@H](CC(=O)O)C(=O)NCc1ccccc1 — 12000-fold higher, 230000 nM
